Test results: publication PMC5636118, “Recombinant laccase from Pediococcus acidilactici CECT 5930 with ability to degrade tyramine” (PLoS ONE, 2017)

Biological target: T1, Lpa5930; P. acidilactici CECT 5930 laccase (D2EK17 protein) (Pediococcus acidilactici, UniProt Z9B926UHL0)
T1 construct: pET28a, E. coli BL21(DE3)/pGro7; ~60 kDa by SDS-PAGE; D2EK17 is the UniProt entry of the strain 7_4 homologue
T1 sequence (Z9B926UHL0 1-477): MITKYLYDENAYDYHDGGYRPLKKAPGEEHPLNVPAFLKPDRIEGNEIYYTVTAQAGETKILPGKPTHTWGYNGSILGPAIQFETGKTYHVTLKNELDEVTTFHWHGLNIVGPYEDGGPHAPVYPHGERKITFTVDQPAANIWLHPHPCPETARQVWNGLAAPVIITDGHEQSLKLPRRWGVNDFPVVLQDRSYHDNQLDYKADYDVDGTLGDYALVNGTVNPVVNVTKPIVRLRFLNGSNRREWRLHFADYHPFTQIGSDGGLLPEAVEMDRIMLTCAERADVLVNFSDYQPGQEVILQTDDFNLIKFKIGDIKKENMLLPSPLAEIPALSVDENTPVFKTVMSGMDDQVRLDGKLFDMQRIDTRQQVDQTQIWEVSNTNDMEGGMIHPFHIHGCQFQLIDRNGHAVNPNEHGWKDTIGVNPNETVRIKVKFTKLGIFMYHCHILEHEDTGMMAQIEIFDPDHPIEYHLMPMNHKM
Assay: ABTS oxidation, absorbance at […] nm, Michaelis-Menten fit
Assay type: biochemical
Settings: acetate buffer pH 4.0, 28°C; apparent Km (abstract)

CCn1c(=NN=c2sc3cc(S(=O)(=O)O)ccc3n2CC)sc2cc(S(=O)(=O)O)ccc21 [ABTS, 2,2′-azino-bis(3-ethylbenzothiazoline-6-sulfonic acid)]
Km: 1700 µM
